Data taken from patent US11672817B2, “Maltosyl-Isomaltooligosaccharides” (ISOThrive Inc., priority 2016, dated 2023).
No end group written: not given here.

Legend:
[1] = test system: Weissella viridescens NRRL B-1951; test: W. viridescens culture absorbance (growth) with nisin; format: cell-based; set-up: key to Corrected ABS 610rs: A600 minus background absorbance taken just after inoculation; settings: for 91516 ABS 610f: final absorbance, uncorrected
Procedure: Purified nisin A and Z are commercially available and were acquired from Handary S. A. (Brussels Belgium). Certificates of analysis for each lot indicated purities of 95.2 and 99.6% for nisin A and Z, respectively.
100 g De-Man, Rogosa and Sharpe (MRS) media was prepared in a 500 mL Erlenmeyer to contain 5.5% solids in deionized water (18.2 MS2, Hydro Service and Supplies, Gaithersburg, Md.). The media was autoclaved (121° C. 15 min), cooled, and inoculated with 1 mL (0.5 mL culture+0.5 mL glycerol, 40%; frozen at −78° C.) of Weissella viridescens NRRL B-1951 (test strain). The culture was incubated at 31° C. overnight (15 Hr).
The next day, stock solutions of either nisin A or Z were prepared in deionized water to contain 31.3 and 33.7 μg/g of each peptide.
(§1) 100 g MRS media was prepared to contain 5.5% solids. Two sets (one set each for nisin A and nisin Z) of eight Hach-type tubes (Kimble Chase 45066-16100) were prepared. Within each set, in order was added 5.00, 4.95, 4.90, 4.75, 4.50, 4.00, 3.50 and 3.00 g MRS media. The tubes were sealed and autoclaved.
(§2) To each tube was added, of the appropriate nisin stock, 0.00, 0.05, 0.10, 0.25, 0.50, 1.00, 1.50, and 2.00 g. Each tube was inoculated with 0.25 g of late-log W. viridescens NRRL B-1951 culture. The tubes were sealed and the absorbance at 600 nm was quickly measured (Hach DR900). The tubes were segregated by set and incubated at 31° C. overnight (15 Hr).
Each tube was thoroughly mixed to suspend settled cells and the absorbance was measured again at 600 nm. The final absorbance values for each sample were corrected for their respective background (taken just after inoculation, scattered light from added cells). The corrected absorption values were a measure of W. viridescens growth. The corrected values were plotted against nisin concentration and minimum inhibiting concentration approximated via regression.

[2] = test system: Weissella viridescens NRRL B-1951; test: HPLC of culture supernatants: consumption of glucose and production of organic acids with nisin; format: cell-based; settings: for acetic acid in the fermentation media: MRS media originally contained 7% acetate
Procedure: as §1, §2
Each tube was sampled (1.5 mL conical polypropylene centrifuge tubes) and centrifuged at 10 kRPM for 10 minutes to remove and suspended cells. The resulting supernatants were filtered (0.2 μm nylon), diluted to 0.5% solids, and analyzed by high pressure liquid chromatography (HPLC, Agilent 1100, refractive index detector and BioRad Ainex HPX-87H column) for consumption of glucose and production of organic acids. The following table illustrates the concentration of sugars such as glucose and production of organic acids during the incubation.
Note that the MRS media originally contained 7% acetate; therefore 7% should be subtracted from the values for acetate in the above table to ascertain the amount of acetate generated during the assay.

nisin Z (ITSISLCTPGCKTGALMGCNMKTATCNCSIHVSK; not fully specified (residues 2, 5, 33, bridges); also: lantibiotic (thioether rings, dehydrated residues not placed); UniProt P13068 24-57, looked up, variant H27N) [Purified nisin Z, commercially available, acquired from Handary S. A; purity 99.6%; bacteriocin peptide]
inhibition of bacterial growth [1]: can effectively inhibit | 91516 ABS 610f ([1]; nisin Z 0.34 μg/g (tube Z2)): 1.618 | 91516 ABS 610f ([1]; nisin Z 0.77 μg/g (tube Z3)): 1.526 | 91516 ABS 610f ([1]; nisin Z 1.58 μg/g (tube Z4)): 1.296 | 91516 ABS 610f ([1]; nisin Z 3.19 μg/g (tube Z5)): 0.801 | 91516 ABS 610f ([1]; nisin Z 6.31 μg/g (tube Z6)): 0.426 | 91516 ABS 610f ([1]; nisin Z 9.54 μg/g (tube Z7)): 0.384 | 91516 ABS 610f ([1]; nisin Z 12.61 μg/g (tube Z8)): 0.386 | Corrected ABS 610rs ([1]; nisin Z 0.34 μg/g (tube Z2)): 1.146 | Corrected ABS 610rs ([1]; nisin Z 0.77 μg/g (tube Z3)): 1.062 | Corrected ABS 610rs ([1]; nisin Z 1.58 μg/g (tube Z4)): 0.841 | Corrected ABS 610rs ([1]; nisin Z 3.19 μg/g (tube Z5)): 0.359 | Corrected ABS 610rs ([1]; nisin Z 6.31 μg/g (tube Z6)): 0.003 | Corrected ABS 610rs ([1]; nisin Z 9.54 μg/g (tube Z7)): 0.001 | Corrected ABS 610rs ([1]; nisin Z 12.61 μg/g (tube Z8)): 0.001 | Maltotriose in the fermentation media ([2]; nisin Z 0.34 μg/g (tube Z2)): 0.282 %/brix | ethanol in the fermentation media ([2]; nisin Z 0.34 μg/g (tube Z2)): 0.057 %/brix | formic acid in the fermentation media ([2]; nisin Z 0.34 μg/g (tube Z2)): 0.303 %/brix | fructose in the fermentation media ([2]; nisin Z 0.34 μg/g (tube Z2)): 0.000 %/brix | glucose in the fermentation media ([2]; nisin Z 0.34 μg/g (tube Z2)): 22.988 %/brix | glycerol in the fermentation media ([2]; nisin Z 0.34 μg/g (tube Z2)): 0.343 %/brix | lactic acid in the fermentation media ([2]; nisin Z 0.34 μg/g (tube Z2)): 6.742 %/brix | maltose in the fermentation media ([2]; nisin Z 0.34 μg/g (tube Z2)): 0.722 %/brix | acetic acid in the fermentation media ([2]; nisin Z 0.34 μg/g (tube Z2)): 8.273 %/brix | Maltotriose in the fermentation media ([2]; nisin Z 1.58 μg/g (tube Z4)): 0.265 %/brix | ethanol in the fermentation media ([2]; nisin Z 1.58 μg/g (tube Z4)): 0.083 %/brix | formic acid in the fermentation media ([2]; nisin Z 1.58 μg/g (tube Z4)): 0.309 %/brix | fructose in the fermentation media ([2]; nisin Z 1.58 μg/g (tube Z4)): 0.000 %/brix | glucose in the fermentation media ([2]; nisin Z 1.58 μg/g (tube Z4)): 24.153 %/brix | glycerol in the fermentation media ([2]; nisin Z 1.58 μg/g (tube Z4)): 0.337 %/brix | lactic acid in the fermentation media ([2]; nisin Z 1.58 μg/g (tube Z4)): 5.081 %/brix | maltose in the fermentation media ([2]; nisin Z 1.58 μg/g (tube Z4)): 1.007 %/brix | acetic acid in the fermentation media ([2]; nisin Z 1.58 μg/g (tube Z4)): 8.247 %/brix | Maltotriose in the fermentation media ([2]; nisin Z 3.19 μg/g (tube Z5)): 0.311 %/brix | ethanol in the fermentation media ([2]; nisin Z 3.19 μg/g (tube Z5)): 0.067 %/brix | formic acid in the fermentation media ([2]; nisin Z 3.19 μg/g (tube Z5)): 0.281 %/brix | fructose in the fermentation media ([2]; nisin Z 3.19 μg/g (tube Z5)): 0.000 %/brix | glucose in the fermentation media ([2]; nisin Z 3.19 μg/g (tube Z5)): 24.698 %/brix | glycerol in the fermentation media ([2]; nisin Z 3.19 μg/g (tube Z5)): 0.321 %/brix | lactic acid in the fermentation media ([2]; nisin Z 3.19 μg/g (tube Z5)): 2.995 %/brix | maltose in the fermentation media ([2]; nisin Z 3.19 μg/g (tube Z5)): 0.750 %/brix | acetic acid in the fermentation media ([2]; nisin Z 3.19 μg/g (tube Z5)): 8.026 %/brix | Maltotriose in the fermentation media ([2]; nisin Z 6.31 μg/g (tube Z6)): 0.247 %/brix | ethanol in the fermentation media ([2]; nisin Z 6.31 μg/g (tube Z6)): 0.059 %/brix | formic acid in the fermentation media ([2]; nisin Z 6.31 μg/g (tube Z6)): 0.267 %/brix | fructose in the fermentation media ([2]; nisin Z 6.31 μg/g (tube Z6)): 0.000 %/brix | glucose in the fermentation media ([2]; nisin Z 6.31 μg/g (tube Z6)): 25.353 %/brix | glycerol in the fermentation media ([2]; nisin Z 6.31 μg/g (tube Z6)): 0.320 %/brix | lactic acid in the fermentation media ([2]; nisin Z 6.31 μg/g (tube Z6)): 1.351 %/brix | maltose in the fermentation media ([2]; nisin Z 6.31 μg/g (tube Z6)): 0.726 %/brix | acetic acid in the fermentation media ([2]; nisin Z 6.31 μg/g (tube Z6)): 7.969 %/brix | Maltotriose in the fermentation media ([2]; nisin Z 9.54 μg/g (tube Z7)): 0.291 %/brix | ethanol in the fermentation media ([2]; nisin Z 9.54 μg/g (tube Z7)): 0.065 %/brix | formic acid in the fermentation media ([2]; nisin Z 9.54 μg/g (tube Z7)): 0.263 %/brix | fructose in the fermentation media ([2]; nisin Z 9.54 μg/g (tube Z7)): 0.000 %/brix | glucose in the fermentation media ([2]; nisin Z 9.54 μg/g (tube Z7)): 25.501 %/brix | glycerol in the fermentation media ([2]; nisin Z 9.54 μg/g (tube Z7)): 0.335 %/brix | lactic acid in the fermentation media ([2]; nisin Z 9.54 μg/g (tube Z7)): 1.431 %/brix | maltose in the fermentation media ([2]; nisin Z 9.54 μg/g (tube Z7)): 0.895 %/brix | acetic acid in the fermentation media ([2]; nisin Z 9.54 μg/g (tube Z7)): 8.026 %/brix | Maltotriose in the fermentation media ([2]; nisin Z 12.61 μg/g (tube Z8)): 0.318 %/brix | ethanol in the fermentation media ([2]; nisin Z 12.61 μg/g (tube Z8)): 0.148 %/brix | formic acid in the fermentation media ([2]; nisin Z 12.61 μg/g (tube Z8)): 0.299 %/brix | fructose in the fermentation media ([2]; nisin Z 12.61 μg/g (tube Z8)): 0.000 %/brix | glucose in the fermentation media ([2]; nisin Z 12.61 μg/g (tube Z8)): 25.740 %/brix | glycerol in the fermentation media ([2]; nisin Z 12.61 μg/g (tube Z8)): 0.346 %/brix | lactic acid in the fermentation media ([2]; nisin Z 12.61 μg/g (tube Z8)): 1.652 %/brix | maltose in the fermentation media ([2]; nisin Z 12.61 μg/g (tube Z8)): 0.876 %/brix | acetic acid in the fermentation media ([2]; nisin Z 12.61 μg/g (tube Z8)): 8.261 %/brix
